The test system of assay [1] is R2 (MTX-resistant CCRF-CEM subline). The assay can be described thus: Inhibition of growth of RFC-defective subline R2. Format: cell-based. The conditions noted are these: Homo sapiens, continuous exposure, no Z, read-out: EC50 against R2. Here is the method:
(§1) Inhibition of growth of human cell lines in vitro. Inhibition of growth of CCRF-CEM in continuous and intermittent drug exposures was measured. EC50 values were determined from plots of percent control growth versus the logarithm of drug concentration.
TMTX was present in both conditions to establish DHFR inhibition, since that appears to be required.

The test system of assay [2] is CCRF-CEM cells. Description: Subcellular localization of [3H]MTX. The class given is cell-based, human. The procedure:
Subcellular fractionation. […] Cells were diluted 9-fold in iced 0.9% NaCl, centrifuged at 1000×g for 5 min and washed once with 40 ml iced saline. All subsequent steps were performed at 4°. Cells were homogenized as previously described, except that hypotonic buffer at 20-fold the packed cell volume was used, and the homogenate was centrifuged for 6 min at 1000×g to yield a nuclear pellet (also containing unlysed cells and large debris) and a post-nuclear supernatant (PNS). Based on controls using nonradiolabeled cells, >91% of the cells would be lysed during homogenization. The PNS was centrifuged at 17,000×g to yield a combined mitochondria-lysosome pellet. The resulting supernatant was centrifuged at 100,000×g for 60 min to yield the 100,000×g supernatant (cytosol). The 100,000×g pellet (microsomes) and the combined mitochondria-lysosome pellet were each washed in isotonic buffer and centrifuged at their respective g-forces. All pellets were solubilized in 0.3% Triton X-100 by incubating at 37° for 1 hr; 1 ml was transferred to a scintillation vial for quantitation. Triton X-100 was added to the cytosol to a final concentration of 0.3% and a 1 ml aliquot was quantitated. Radioactivity in each fraction was corrected for a blank containing 0.3% Triton X-100.

The test system of assay [3] is CCRF-CEM cells. The assay can be described thus: Protein-bound intracellular [3H]MTX. The class given is cell-based, human. The procedure: The cell pellet was frozen immediately at less than or equal to −80 degrees C. To process, 1 ml iced lysis buffer was added to the pellet immediately after removal from the freezer and the pellet was dispersed with a pasteur pipette. Freshly made lysis buffer contained (final concentrations): 50 mM citric-citrate, pH 6.0, 50 mM 2-mercaptoethanol, 50 μM NADPH (in 25 mM Tris, pH7.5), and 2 mg/ml bovine serum albumin. The sample was freeze-thawed once in dry ice-methanol, centrifuged at 1860×g for 10 min to remove debris and then further clarified by centrifugation through an Amicon MPS-1 filter unit. A 5 ml centrifugal column was prepared at 4 degrees C. in a 5 ml plastic syringe plugged with a porous plastic frit overlaid with a GF/C glass fiber filter cut with a #8 cork borer, then packed with Sephadex G-25 (Medium) in 50 mM citric-citrate, pH 6.0 to the 5 ml line, and centrifuged 5 min at 1000×g (0°) to expel liquid. The clarified supernatant (0.5 ml) was applied to the top of the column, the column was re-centrifuged at 1000×g (5 min) and the pass-through was collected in a 7 ml scintillation vial. After addition of scintillation fluid (5.5 ml), the sample was quantitated by liquid scintillation counting.

The subject of assay [4] is CCRF-CEM cells. The assay can be described thus: cells. Format: cell-based, human. The conditions noted are these: read-out: EC50, growth inhibition. The procedure: as §1
[…]; n=2). […]; n=2). Values presented are average±S.D. for n>2 and average±range for n=2. […] […]; EC50 data may therefore underestimate the biological potency.

The target of assay [5] is T1, es (or ENT1) facilitated diffusion nucleoside transport system (Homo sapiens, UniProt Q99808).
T1 construct: this is the only nucleoside transporter present in CCRF-CEM cells; endogenous in cells; host or cells: CCRF-CEM (parental), in HBSS
T1 sequence (Q99808 1-456): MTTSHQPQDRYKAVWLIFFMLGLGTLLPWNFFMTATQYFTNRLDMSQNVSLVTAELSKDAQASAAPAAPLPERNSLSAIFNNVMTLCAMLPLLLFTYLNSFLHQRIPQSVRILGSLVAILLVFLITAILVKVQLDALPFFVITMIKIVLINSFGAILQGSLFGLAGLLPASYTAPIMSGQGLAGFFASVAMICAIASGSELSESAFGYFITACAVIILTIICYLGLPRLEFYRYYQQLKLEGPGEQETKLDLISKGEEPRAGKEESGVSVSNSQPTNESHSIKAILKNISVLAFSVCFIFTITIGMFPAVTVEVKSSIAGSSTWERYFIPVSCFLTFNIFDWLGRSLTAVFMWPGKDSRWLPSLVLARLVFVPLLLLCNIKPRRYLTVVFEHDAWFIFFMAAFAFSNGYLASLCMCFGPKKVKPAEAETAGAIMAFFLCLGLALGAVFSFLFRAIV
Description: Inhibition of Z potentiation of [3H]MTX uptake by es nucleoside transporter inhibitors. The class given is cell-based. The conditions noted are these: [Z] 500 μM, HBSS.

For assay [6], the system named is dCK-deficient subline of CCRF-CEM. Description: [3H]MTX uptake in deoxycytidine kinase-deficient subline. The class given is cell-based, human. The note with it: compared to parental CCRF-CEM. Here is the method:
Z metabolism by deoxycytidine kinase is not essential for Z potentiation. These experiments were conducted to determine if Z itself can cause potentiation orf needs to be metabolized to exert its effect. For these experiments, a deoxycytidine kinase (dCK)-deficient subline of CCRF-CEM was used. Although designated as dCK, this enzyme also phosphorylates the purines deoxyadenosine, deoxyguanosine, and fludarabine. Use of this subline allowed us to test the hypothesis that phosphorylation of Z to ZMP by dCK is essential for potentiation. […] Thus it appears that dCK is not absolutely required for Z potentiation, but may contribute to the metabolism.

Molecules are shown by their SMILES. Like-named read-outs stand apart in the source and are kept apart here.

The values that follow come from patent US7687473B2, “5-amino-4-imidazolecarboxamide riboside and its nucleobase as potentiators of antifolate transport and metabolism” (Health Research, Inc., priority 2005, dated 2010).

Usually EC50 stands for the concentration giving half of the maximal effect. Regarding `CN(Cc1cnc2nc(N)nc(N)c2n1)c1ccc(C(=O)N[C@@H](CCC(=O)O)C(=O)O)cc1` [MTX, 4-amino-10-methylpteroylglutamic acid], in assay [1], the EC50 is 2200 nM. Moreover, the “Cytosol material that is MTX or metabolites (HPLC)” value in the assay with CCRF-CEM cells [2] was > 90%. Also, the “Radioactivity that is cytosolic, post-nuclear supernatant only” value with CCRF-CEM cells [2] (nuclear pellet excluded) was > 98%. Moreover, the “Total recovered radioactivity in the cytosolic fraction” value in the assay with CCRF-CEM cells [2] (±Z) was “More than 91%”. Moreover, the “Protein-bound MTX level at 30 min” value with CCRF-CEM cells [3] (absence of Z) amounted to 6.4±0.1 pmol/10^7 cells; with CCRF-CEM cells [3] (presence of 0.5 mM Z), 5.4±0.4 pmol/10^7 cells.
In the case of `NC(=O)c1ncn([C@@H]2O[C@H](CO)[C@@H](O)[C@H]2O)c1N` [Z, 5-amino-4-imidazolecarboxamide riboside], in the assay with CCRF-CEM cells [4] (0-24/120 hr exposure), the 50% effective concentration (EC50) came to 410 ± 50 µM. Besides, in the assay on CCRF-CEM cells [4] (120 hr exposure), the EC50 worked out at 130 ± 20 µM. Further, in assay [5], the “Rel Corrected 30 min accumulation (relative to +Z, no inhibitor)” value came out at 1 and the “Relative Corrected vi (relative to +Z, no inhibitor)” value is 1. In assay [5] (no inhibitor), the “Accumulation at 30 min” value is on record as 108.3 pmol, the “Corrected 30 min accumulation (accum +Z minus accum −Z with same inhibitor)” value is 91.3, the “Corrected vi (rate +Z minus rate −Z with same inhibitor)” value is reported as 4.25 and the vi is 5.65 pmol/min. Moreover, the “Potentiation of [3H]MTX uptake in dCK-deficient subline” value in assay [6] is “showed potentiation by Z, although to a slightly lower level”.
